Reference: BigSolDB 2.1

O=C1CN=C(c2ccccc2Cl)c2cc([N+](=O)[O-])ccc2N1
solubility (mole fraction)
Details	298.2 K	303.2 K	308.2 K	313.2 K	318.2 K
in NMP	0.0132	0.0142	0.0187	0.0207	0.0222
in ethanol	0.000348	0.000409	0.000533	0.00058	0.000652
in propylene glycol	0.000641	0.00104	0.00108	0.00116	0.00138
in water	1.9e-07	2.4e-07	2.6e-07	2.9e-07	3.2e-07

Details	solubility (mole fraction)
in PEG-200, 298.2 K	0.01
in PEG-200, 303.2 K	0.01
in PEG-200, 308.2 K	0.0134
in PEG-200, 313.2 K	0.0168
in PEG-200, 318.2 K	0.0239
